According to US20250282795A1, “EGFR Inhibitors in cancer treatment” (Celyn Therapeutics, Inc., priority 2022, published 2025):
Read-outs that look alike come from different tables or passages of the source.

Tests used:
[1] = DCM
[2] = Cellular growth inhibition assay (CellTiter-Glo), Ba/F3 (Empty vector); assay type: cell-based; settings: mouse, Ba/F3 cells with empty vector; Ba/F3 (Empty vector) with 10 ng/ml rmIL-3, 3 days of incubation
Summary of the method: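 Ba/F3 cells carrying an empty vector were plated in 384-well black clear-bottom plates at 4000 cells per well in 45 μl RPMI containing FBS and 10 ng/ml rmIL-3. Compounds diluted from DMSO stocks were added as 5 μl of 10× solution, giving 0.2% DMSO. After 3 days, CellTiter-Glo was added and luminescence measured.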

Ba/F3 (EGFRwt) = test: Cellular growth inhibition assay (CellTiter-Glo), Ba/F3 (EGFRwt); assay type: cell-based; settings: Mus musculus, BaF3, 72 h; Ba/F3 (Wild type) with 10 ng/ml rhEGF, 3 days of incubation
Procedure: Example E. Cellular Growth Inhibition Assay
Ba/F3(Empty vector) (Signosis), Ba/F3(Wild type) (Signosis), Ba/F3(L^858R+T790M) (Signosis), Ba/F3(A767_dupASV) (Signosis), Ba/F3(D770_N771insSVD) (Signosis), Ba/F3(H773_V774insNPH) (Signosis) were seeded at a density of 4000 cells per well in a CellBIND® 384-well Flat Clear Bottom Black Polystyrene Microplates (Coming, USA, Cat #3770) in 45 μl total volume of RPMI (PanEco, Cat #C330, Russia) with […] (HyClone, Cat #SV30160.03) and with 10 ng/ml rmIL-3 (RD systems, USA, Cat #403-ML-025) (for BaBF3(Empty vector)) and with 10 ng/ml rhEGF (ThermoFisher, USA, Cat #PHG0311L) (for BaCF3(Wild type)). 500× compounds solutions in DMSO (Sigma Cat #D2650) were prepared into Cmpnds plate (DiamondWell Plate, Axigen, Cat #P-384-120SQ-C—S) and DMSO only control was included. 1.l of 500× compounds (Cmpnds plate) was added to 49 µl of culture medium into Dilution plate (Diamond Well Plate, Axigen, Cat #P-384-120SQ-C—S), mixed and then 5 μl of 10× compounds solutions were transferred to cells followed by centrifugation at 100 g for 1 min. Final DMSO concentration was 0.2% o. After 3 days of incubation 10.l of CellTiter-Glo (Promega, CAT #G7572) were added to the cells, plate was centrifuged at 100 g for 1 min and luminescence signal was measured using Microplate Reader (CLARIOStar).

Ba/F3 (A767_dupASV) = test: Cellular growth inhibition assay (CellTiter-Glo), Ba/F3 (A767_dupASV); assay type: cell-based; settings: Mus musculus, BaF3, 72 h; 3 days of incubation; read-out: Ba/F3 (A767_dup ASV) CC50
Summary of the method: (§1)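 Ba/F3 cells expressing the EGFR variants were seeded at 4000 cells/well in RPMI with FBS, with 10 ng/ml rhEGF added for the wild-type line, and treated with compound at 0.2% final DMSO. Viability was read by CellTiter-Glo luminescence after 3 days.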

Ba/F3 (L858R + T790M) = test: Cellular growth inhibition assay (CellTiter-Glo), Ba/F3 (L858R+T790M); assay type: cell-based; settings: Mus musculus, BaF3, 72 h; 3 days of incubation
Summary of the method: as §1

EGFR (D770_N771insNPG) = EGFR (D770_N771insNPG) (Homo sapiens (Human), UniProt P00533, INS770NPG); test: Potency of EGFR (D770_N771insNPG) enzymatic activity inhibition (ADP-Glo luminescence); assay type: biochemical; settings: recombinant EGFR (D770_N771insNPG) 1.5 nM, Poly(Glu, Tyr) substrate, ATP, 1 h at rt
Procedure: Example B. Primary Assay Used to Determine Potency of EGFR (D770_N771insNPG) Enzymatic Activity Inhibition
Compounds activity was determined using recombinant EGFR (D770 N771insNPG) protein (SignalChem, #E10-132GG-10) and Poly(Glu, Tyr) substrate (Sigma-Aldrich, #P0275) in an in vitro enzymatic reaction. The enzymatic assay used to determine activity was a Luminescence assay using a Microplate Reader ClarioStar Plus. The enzymatic reaction was carried out in assay buffer (40 mM TRIS-HCl pH 7.4-7.6, 20 mM MgCl2, 2.5 mM MnCl2, 0.05 mM DTT, 0.1 mg/ml BSA). The compounds were dispensed on a 384 well Diamond Well Plate (Axigen, Cat #P-384-120SQ-C—S) using the Biomek FX liquid handling system at 80× solutions of compounds in DMSO. 2× Protein-Substrate mix (final concentration 1.5 nM of EGFR (D770_N771insNPG) and 50 ng/μl of Poly(Glu, Tyr)) was prepared in 1× Assay buffer and 4 µl of mixture per well was added into 384w white Reaction plate with NBS (Coming, Cat #4513). 4 μl of Poly(Glu, Tyr) substrate w/o EGFR in 1× buffer was used for negative control. Plates were centrifuged for 1 min at 200 g. Next step the Compounds were added to Reaction plate using Biomek station via following steps: 1 μl of 80× compounds (in DMSO) were mixed thoroughly with 39 μl of 2× 10 μM ATP in Assay Buffer, then 4 μl of this mixture was added to Reaction plate with 4 μl of Protein-Substrate mix. Plates were centrifuged for 1 min at 200 g and incubated for 1 h at rt. Next 4 μL of ADP-Glo reagent (Promega, ADP-Glo™ Kinase Assay, Cat #V9102) per well was added. Plates were incubated for 30 min at rt. Then 8 μL of Kinase detection reagent (Promega, ADP-Glo™ Kinase Assay, Cat #V9102) per well was added and the Luminescence was measured using Microplate Reader. The % inhibition was then used to calculate the EC50 values. The values of EC50 shown as a letters A-E, where: A<0.001 μM; 0.001 μM<B<0.005 μM; 0.005 μM<C<0.01 μM; 0.01<D<0.05 μM; E>0.05.

EGFR (WT) = EGFR (WT) (Homo sapiens (Human), UniProt P00533); test: Potency of EGFR enzymatic activity inhibition (WT) (ADP-Glo luminescence); assay type: biochemical; settings: recombinant EGFR (WT) 4 nM, Poly(Glu, Tyr) substrate, ATP, 1 h at rt
Procedure: Example D. Primary Assay Used to Determine Potency of EGFR enzymatic activity Inhibition (WT)
Compound activity was determined using recombinant EGFR protein (SignalChem, #E10-112G-10) and Poly(Glu, Tyr) substrate (Sigma-Aldrich, #P0275) in an in vitro enzymatic reaction. The enzymatic assay used to determine activity was a Luminescence assay using a Microplate Reader ClarioStar Plus. The enzymatic reaction was carried out in assay buffer (40 mM TRIS-HCl pH 7.4-7.6, 20 mM MgCl2, 2.5 mM MnCl2, 0.05 mM DTT, 0.1 mg/ml BSA). The compounds were dispensed on a 384 well Diamond Well Plate (Axigen, Cat #P-384-120SQ-C—S) using the Biomek FX liquid handling system at 80× solutions of compounds in DMSO. 2× Protein-Substrate mix (final concentration 4 nM of EGFR and 50 ng/μl of Poly(Glu, Tyr)) was prepared in 1× Assay buffer and 4 μl of mixture per well was added into 384w white Reaction plate with NBS (Coming, Cat #4513). 4 μl of Poly(Glu, Tyr) substrate w/o EGFR in 1× buffer was used for negative control. Plates were centrifuged for 1 min at 200 g. Next step the Compounds were added to Reaction plate using Biomek station via following steps: 1 μl of 80× compounds (in DMSO) were mixed thoroughly with 39 μl of 2× 10 μM ATP in Assay Buffer, then 4 μl of this mixture was added to Reaction plate with 4 μl of Protein-Substrate mix. Plates were centrifuged for 1 min at 200 g and incubated for 1 h at rt. Next 4 μL of ADP-Glo reagent (Promega, ADP-Glo™ Kinase Assay, Cat #V9102) per well was added. Plates were incubated for 30 min at rt. Then 8 μL of Kinase detection reagent (Promega, ADP-Glo™ Kinase Assay, Cat #V9102) per well was added and the Luminescence was measured using Microplate Reader. The % inhibition was then used to calculate the EC50 values. The results for certain compounds are presented in the Table D. The values of EC50 shown as a letters A-E, where: A<0.001 μM; 0.001 μM<B<0.005 μM; 0.005 μM<C<

Ba/F3 (D770_N771insSVD) = test: Cellular growth inhibition assay (CellTiter-Glo), Ba/F3 (D770_N771insSVD); assay type: cell-based; settings: Mus musculus, BaF3, 72 h; 3 days of incubation; read-out: Ba/F3 (D770_N771 insSVD) CC50
Summary of the method: as §1

Ba/F3 (H773_V774insSVD) = test: Cellular growth inhibition assay (CellTiter-Glo), Ba/F3 (H773_V774insSVD); assay type: cell-based; settings: Mus musculus, BaF3, 72 h; 3 days of incubation; read-out: Ba/F3 (H773_V774 insSVD) CC50
[3] = rcm bond, 14-membered ring, Grubbs II (12 mol%), 10.0 mM, 50.0 °C

Sequence of EGFR (D770_N771insNPG) (P00533 other isoform, or with tags, fused parts or gaps del 1-694/ins NPG behind 770 limits assumed): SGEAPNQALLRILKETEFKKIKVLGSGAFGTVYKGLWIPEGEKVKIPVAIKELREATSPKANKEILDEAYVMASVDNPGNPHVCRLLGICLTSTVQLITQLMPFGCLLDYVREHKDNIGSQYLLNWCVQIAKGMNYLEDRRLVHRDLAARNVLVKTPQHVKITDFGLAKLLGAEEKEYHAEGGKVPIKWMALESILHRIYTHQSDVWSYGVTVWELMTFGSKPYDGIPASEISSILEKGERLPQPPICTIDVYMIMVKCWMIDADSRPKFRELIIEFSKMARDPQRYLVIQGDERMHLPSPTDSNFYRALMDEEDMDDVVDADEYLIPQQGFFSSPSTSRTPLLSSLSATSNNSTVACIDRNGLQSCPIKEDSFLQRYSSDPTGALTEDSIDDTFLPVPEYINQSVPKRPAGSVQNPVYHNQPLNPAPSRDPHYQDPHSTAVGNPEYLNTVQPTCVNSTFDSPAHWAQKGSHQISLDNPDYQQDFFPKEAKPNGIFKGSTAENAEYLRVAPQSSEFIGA
Sequence of EGFR (WT) (P00533 25-1210): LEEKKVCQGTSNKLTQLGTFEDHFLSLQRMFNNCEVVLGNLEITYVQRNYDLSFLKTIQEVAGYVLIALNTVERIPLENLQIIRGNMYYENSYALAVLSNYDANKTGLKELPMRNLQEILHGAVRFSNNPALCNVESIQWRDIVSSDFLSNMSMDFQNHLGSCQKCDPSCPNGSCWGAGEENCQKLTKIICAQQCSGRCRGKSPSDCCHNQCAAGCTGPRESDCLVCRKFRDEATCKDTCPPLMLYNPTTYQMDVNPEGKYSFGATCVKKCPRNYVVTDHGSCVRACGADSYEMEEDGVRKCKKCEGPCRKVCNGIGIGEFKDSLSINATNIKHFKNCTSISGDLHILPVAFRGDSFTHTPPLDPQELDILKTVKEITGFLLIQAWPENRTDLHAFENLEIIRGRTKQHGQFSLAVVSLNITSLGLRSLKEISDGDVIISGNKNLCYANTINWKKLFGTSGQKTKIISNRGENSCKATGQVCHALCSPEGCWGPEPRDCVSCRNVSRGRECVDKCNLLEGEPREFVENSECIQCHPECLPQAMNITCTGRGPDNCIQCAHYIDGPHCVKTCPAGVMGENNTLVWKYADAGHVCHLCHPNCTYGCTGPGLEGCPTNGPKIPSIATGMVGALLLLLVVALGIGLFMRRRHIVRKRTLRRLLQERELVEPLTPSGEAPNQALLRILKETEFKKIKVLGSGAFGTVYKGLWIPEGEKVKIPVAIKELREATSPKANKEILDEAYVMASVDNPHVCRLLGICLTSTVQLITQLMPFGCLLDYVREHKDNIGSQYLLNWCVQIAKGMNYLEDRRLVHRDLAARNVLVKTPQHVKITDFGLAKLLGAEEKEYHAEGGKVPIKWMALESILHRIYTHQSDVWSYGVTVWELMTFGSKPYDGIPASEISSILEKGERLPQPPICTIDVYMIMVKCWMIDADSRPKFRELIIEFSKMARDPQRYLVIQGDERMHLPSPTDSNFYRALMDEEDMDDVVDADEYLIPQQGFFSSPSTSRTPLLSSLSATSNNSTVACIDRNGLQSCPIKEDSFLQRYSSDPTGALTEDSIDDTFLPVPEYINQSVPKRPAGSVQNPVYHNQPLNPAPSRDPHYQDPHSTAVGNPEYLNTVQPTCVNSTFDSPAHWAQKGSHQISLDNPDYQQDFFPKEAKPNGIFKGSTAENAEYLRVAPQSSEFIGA

EC50 (EGFR (D770_N771insNPG)) [µM]	EC50 (EGFR (WT)) [µM]	Molecule	CC50 at 3 days [2] [µM]	CC50 (Ba/F3 (EGFRwt)) [µM]	CC50 (Ba/F3 (A767_dupASV)) [µM]	CC50 (Ba/F3 (L858R + T790M)) [µM]	CC50 (Ba/F3 (D770_N771insSVD)) [µM]	CC50 (Ba/F3 (H773_V774insSVD)) [µM]	also measured
		COc1c(F)cccc1Nc1c2[nH]c3c1C(=O)NCC3CC=CCCOc1cnccc1-2 (stereo not shown)							ring closure, isolated yield ([1]; from C=CCCOc1cnccc1-c1[nH]c2c(c1Nc1cccc(F)c1OC)C(=O)NCC2CC=C, rcm bond, 12-membered ring, Grubbs II (15 mol%), 10.0 mM, 50.0 °C): 71%
		19-[(3-Fluoro-2-methoxyphenyl)amino]-7,8,10,11,12,12a,13,14-octahydro-6H-7,9-methano-16,18-methenodipyrido[3,4-b:4′,3′-f][1,5,11]oxadiazacyclotetradecin-15(17H)-one							ring closure, isolated yield ([1]; amine bond, 14-membered ring, STAB/DIEA, 190.0 mM, 25.0 °C): 36%
		29-(3-Fluoro-2-methoxyanilino)-18,21-dioxa-1,6,10,15,24-pentaazapentacyclo[22.2.2.1^8,110^4,9.0^12,17]nonacosa-8,11(29),12(17),13,15-pentaene-2,7-dione							ring closure, yield after HPLC (amide bond, 18-membered ring, EDCI, DMF, 43.0 mM, 25.0 °C): 16%
0.001 to 0.005	≤ 0.001	COc1c(F)cccc1Nc1c2[nH]c3c1C(=O)NCC3CCCCOCCOc1cnccc1-2 (stereo not shown) [Compound 100, 23-[(3-Fluoro-2-methoxyphenyl)amino]-8,11-dioxa-5,18,22-triazatetracyclo[18.2.1.0^2,7.0^16,21]tricosa-1(23),2,4,6,20-pentaen-19-one]	> 10	0.01 to 0.1	0.001 to 0.01	0.1 to 1	0.01 to 0.1	0.01 to 0.1	
0.001 to 0.005	0.001 to 0.005	COc1c(F)cccc1Nc1c2[nH]c3c1C(=O)NC[C@H]3CCCCOCCOc1cnccc1-2 [Compound 114, (16R)-23-[(3-Fluoro-2-methoxyphenyl)amino]-8,11-dioxa-5,18,22-triazatetracyclo[18.2.1.0^2,7.0^16,21]tricosa-1(23),2,4,6,20-pentaen-19-one]	> 10	0.1 to 1	0.0001 to 0.001	0.1 to 1	0.01 to 0.1	0.1 to 1	
0.001 to 0.005	0.001 to 0.005	COc1c(F)cccc1Nc1c2[nH]c3c1C(=O)NC[C@@H]3CCCCOCCOc1cnccc1-2 [Compound 115]	> 10	0.1 to 1	0.0001 to 0.001	0.1 to 1	0.01 to 0.1	0.01 to 0.1	
		(13E)-23-[(3-Fluoro-2-methoxyphenyl)amino]-8,11-dioxa-5,18,22-tniazatetracyclo[18.2.1.0^2,7.0^16′2]tricosa-1(23),2,4,6,13,20-hexaen-19-one							ring closure, isolated yield [1, 3]: 16%
		(13Z)-23-[(3-fluoro-2-methoxyphenyl)amino]-8,11-dioxa-5,18,22-triazatetracyclo[18.2.10^2,7.0^16,21]tricosa-1(23),2,4,6,13,20-hexaen-19-one							ring closure, isolated yield [1, 3]: 4%
		(19E)-28-[(3-Fluoro-2-methoxyphenyl)amino]-3,22-dioxa-6,11,15-triazapentacyclo[21.3.1^10,13.0^4,9.0^12,17]octacosa-1(27),4,6,8,10(28),12,19,23,25-nonaen-14-one							ring closure, yield after HPLC (rcm bond, 16-membered ring, Hoveyda-Grubbs II (10 mol%), DCM, 3.6 mM): 20%

Molecule	EC50 (EGFR (D770_N771insNPG)) [µM]	EC50 (EGFR (WT)) [µM]	CC50 at 3 days [2] [µM]	CC50 (Ba/F3 (EGFRwt)) [µM]	CC50 (Ba/F3 (A767_dupASV)) [µM]	CC50 (Ba/F3 (L858R + T790M)) [µM]	CC50 (Ba/F3 (D770_N771insSVD)) [µM]	CC50 (Ba/F3 (H773_V774insSVD)) [µM]	also measured
COc1c(F)cccc1Nc1c2[nH]c3c1C(=O)NCC3C/C=C/COCCOc1cnccc1-2 (stereo not shown) [Compound 99, (13E)-23-[(3-Fluoro-2-methoxyphenyl)amino]-8,11-dioxa-5,18,22-tniazatetracyclo[18.2.1.0^2,7.0^16′2]tricosa-1(23),2,4,6,13,20-hexaen-19-one]	0.001 to 0.005	0.001 to 0.005	> 10	0.01 to 0.1	0.001 to 0.01	0.1 to 1	0.01 to 0.1	0.1 to 1	
COc1c(F)cccc1Nc1c2[nH]c3c1C(=O)NCC3C/C=C\COCCOc1cnccc1-2 (stereo not shown) [Compound 104, (13Z)-23-[(3-fluoro-2-methoxyphenyl)amino]-8,11-dioxa-5,18,22-triazatetracyclo[18.2.10^2,7.0^16,21]tricosa-1(23),2,4,6,13,20-hexaen-19-one]	≤ 0.001	0.001 to 0.005	> 10	0.1 to 1	0.0001 to 0.001	0.1 to 1	0.01 to 0.1	0.1 to 1	
